# In ChEMBL document CHEMBL1136681, “[3H]-(R)-NPTS, a radioligand for the type 1 glycine transporter” (Bioorg Med Chem Lett, 2003):
# Experiment: Inhibition of [3-H]-glycine uptake into rat synaptosomes
# Format: subcellular, Brain
row,SMILES,IC50
1,Cc1ccc(C(=O)c2ccc(OC(CCN(C)CC(=O)O)c3ccccc3)cc2)cc1 (configuration not stated),153 nM
2,CN(CCC(Oc1ccc(-c2ccccc2)cc1)c1ccc(F)cc1)CC(=O)O (configuration not stated),36.4 nM
